Measured values: ChEMBL document CHEMBL5500402, “Potent, Selective Agonists for the Cannabinoid-like Orphan G Protein-Coupled Receptor GPR18: A Promising Drug Target for Cancer and Immunity” (J Med Chem, 2024)
pEC50, pIC50, pKi: −log10 of the molar value.

Legend:
[1] = target: T1, N-arachidonyl glycine receptor (Mus musculus, UniProt Q8K1Z6)
T1 sequence (Q8K1Z6 whole entry): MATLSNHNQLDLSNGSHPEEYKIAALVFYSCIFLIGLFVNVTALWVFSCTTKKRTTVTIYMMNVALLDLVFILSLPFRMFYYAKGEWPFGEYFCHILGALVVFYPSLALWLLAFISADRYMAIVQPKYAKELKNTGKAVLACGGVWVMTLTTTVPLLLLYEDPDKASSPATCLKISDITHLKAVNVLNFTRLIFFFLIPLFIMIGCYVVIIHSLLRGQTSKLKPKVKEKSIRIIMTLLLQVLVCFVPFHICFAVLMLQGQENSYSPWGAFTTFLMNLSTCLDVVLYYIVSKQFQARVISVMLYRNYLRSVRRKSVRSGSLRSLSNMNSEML
Description: Agonist activity at mouse GPR18 expressed in CHO cells assessed as activation by measuring beta-arrestin2 recruitment incubated for 90 mins by luminescence based assay

[2] = target: T2, N-arachidonyl glycine receptor (Homo sapiens, UniProt Q14330); assay: Antagonist activity at human GPR18 receptor expressed in CHO cells assessed as inhibition of THC-induced activation by measuring beta-arrestin2 recruitment
T2 sequence (Q14330 whole entry): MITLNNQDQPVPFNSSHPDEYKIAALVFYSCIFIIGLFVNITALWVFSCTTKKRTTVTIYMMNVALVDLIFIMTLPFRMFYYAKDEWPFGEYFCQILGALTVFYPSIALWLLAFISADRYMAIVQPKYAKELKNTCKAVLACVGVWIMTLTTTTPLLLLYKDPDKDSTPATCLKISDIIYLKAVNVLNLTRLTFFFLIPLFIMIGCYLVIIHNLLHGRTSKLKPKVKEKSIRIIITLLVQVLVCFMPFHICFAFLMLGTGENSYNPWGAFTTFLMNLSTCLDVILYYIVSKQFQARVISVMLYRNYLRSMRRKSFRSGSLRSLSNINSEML

[3] = target: T2, N-arachidonyl glycine receptor
[4] = target: T2, N-arachidonyl glycine receptor; assay: Agonist activity at human GPR18 expressed in CHO cells assessed as activation by measuring beta-arrestin2 recruitment incubated for 90 mins by luminescence based assay; assay type: functional, cell-based
Cannabinoid receptor 2 = Cannabinoid receptor 2 (Homo sapiens, UniProt P34972); assay: Displacement of [3H]-CP55940 from human CB2 receptor expressed in CHO cells assessed as inhibition constant by radioligand competition binding assay; assay type: cell-based
Cannabinoid receptor 2, sequence (P34972 whole entry): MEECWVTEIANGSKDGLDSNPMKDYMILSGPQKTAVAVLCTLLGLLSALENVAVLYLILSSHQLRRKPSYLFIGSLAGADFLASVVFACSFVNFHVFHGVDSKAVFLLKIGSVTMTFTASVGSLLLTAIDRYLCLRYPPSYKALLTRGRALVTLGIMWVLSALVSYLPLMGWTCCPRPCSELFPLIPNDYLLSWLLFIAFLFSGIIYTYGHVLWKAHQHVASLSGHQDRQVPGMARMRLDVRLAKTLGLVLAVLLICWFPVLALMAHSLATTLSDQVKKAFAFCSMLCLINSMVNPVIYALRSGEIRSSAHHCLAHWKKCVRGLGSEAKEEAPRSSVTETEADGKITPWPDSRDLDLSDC

Cannabinoid receptor 1 = Cannabinoid receptor 1 (Homo sapiens, UniProt P21554); assay: Displacement of [3H]-CP55940 from human CB1 receptor expressed in CHO cells assessed as inhibition constant by radioligand competition binding assay; assay type: cell-based; settings: for pKi: read-out: Ki
Cannabinoid receptor 1, sequence (P21554 whole entry): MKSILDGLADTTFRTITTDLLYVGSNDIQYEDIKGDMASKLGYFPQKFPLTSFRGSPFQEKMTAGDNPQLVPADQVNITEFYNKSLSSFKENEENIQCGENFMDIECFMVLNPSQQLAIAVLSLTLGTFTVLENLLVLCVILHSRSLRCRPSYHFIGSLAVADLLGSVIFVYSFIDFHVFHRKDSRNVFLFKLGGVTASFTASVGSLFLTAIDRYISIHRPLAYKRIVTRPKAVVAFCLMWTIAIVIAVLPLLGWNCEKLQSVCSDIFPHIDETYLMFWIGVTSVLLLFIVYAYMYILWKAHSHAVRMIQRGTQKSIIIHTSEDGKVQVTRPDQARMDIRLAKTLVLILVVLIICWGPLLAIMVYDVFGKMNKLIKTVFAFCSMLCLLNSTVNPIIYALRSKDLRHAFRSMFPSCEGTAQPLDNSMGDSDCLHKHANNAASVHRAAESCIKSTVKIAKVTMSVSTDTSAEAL

[5] = target: T3, G-protein coupled receptor 55 (Homo sapiens, UniProt Q9Y2T6); assay: Antagonist activity at human GPR55 expressed in CHO-K1 cells assessed as inhibition of beta-arrestin2 recruitment
T3 sequence (Q9Y2T6 whole entry): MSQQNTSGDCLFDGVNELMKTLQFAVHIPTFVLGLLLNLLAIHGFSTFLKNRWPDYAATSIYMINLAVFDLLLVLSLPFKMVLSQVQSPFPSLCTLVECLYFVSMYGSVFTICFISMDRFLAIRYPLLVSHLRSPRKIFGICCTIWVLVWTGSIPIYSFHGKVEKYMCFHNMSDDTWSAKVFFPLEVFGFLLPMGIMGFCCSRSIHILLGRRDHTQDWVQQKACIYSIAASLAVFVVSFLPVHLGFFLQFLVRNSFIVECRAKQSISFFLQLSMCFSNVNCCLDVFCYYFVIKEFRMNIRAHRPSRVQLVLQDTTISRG

[6] = target: T3, G-protein coupled receptor 55; assay: Agonist activity at human GPR55 expressed in CHO-K1 cells by beta-arrestin2 recruitment assay
[7] = target: T2, N-arachidonyl glycine receptor; assay: Agonist activity at human GPR18-eYFP and Renilla luc expressed in CHO cells assessed as beta-arrestin2 recruitment by BRET/beta-arrestin2 enzyme complementation assay
[8] = target: G-protein coupled receptor 183 (Homo sapiens, UniProt P32249); assay: Agonist activity at human GPR183 expressed in PathHunter CHO-K1 cells assessed as activation by measuring beta-arrestin2 recruitment
G-protein coupled receptor 183, sequence (P32249 whole entry): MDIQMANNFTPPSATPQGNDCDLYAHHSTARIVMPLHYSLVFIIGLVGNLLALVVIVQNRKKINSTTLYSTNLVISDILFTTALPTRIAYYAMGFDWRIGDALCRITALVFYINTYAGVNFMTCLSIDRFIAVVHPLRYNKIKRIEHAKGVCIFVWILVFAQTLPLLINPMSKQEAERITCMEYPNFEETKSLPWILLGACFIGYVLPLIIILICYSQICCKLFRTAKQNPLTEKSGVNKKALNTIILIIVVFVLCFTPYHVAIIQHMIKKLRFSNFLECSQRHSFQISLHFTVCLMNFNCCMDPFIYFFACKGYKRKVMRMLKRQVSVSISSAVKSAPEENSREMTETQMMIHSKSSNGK

SMILES	pEC50 [1]	pEC50 [4]	further results
Cn1c(=O)c2c(nc3n2CCCN3CCc2c[nH]c3ccccc23)n(C)c1=O	5.75		
O=C1/C(=C/c2cccc(OCCCCCCOc3ccc(Cl)cc3)c2)N=C2SCCCN12			pIC50 [2]: 6.31; pIC50 [3]: 5.00
Cn1c(=O)c2c(nc3n2CCCCN3CCc2c[nH]c3ccccc23)n(C)c1=O	6.24		
C=C(C)[C@@H]1CCC(C)=C[C@H]1c1c(O)cc(O)cc1CCCCC	< 5.00	< 5.00	
CCC#CCn1c(NCCc2c[nH]c3ccccc23)nc2c1c(=O)n(C)c(=O)n2C	6.43	6.60	
Cn1c(=O)c2c(nc(NCCc3c[nH]c4ccccc34)n2CCF)n(C)c1=O	5.58	5.86	
Cn1c(=O)c2c(nc(NCCc3c[nH]c4ccccc34)n2Cc2ccccc2)n(C)c1=O	6.71	6.83	
C=CCn1c(NCCc2c[nH]c3ccccc23)nc2c1c(=O)n(C)c(=O)n2C	6.42	6.77	
Cn1c(=O)c2c(nc(NCCc3c[nH]c4ccccc34)n2Cc2cccc(Cl)c2)n(C)c1=O	6.66	7.15	pKi (Cannabinoid receptor 2): 6.05
Cn1c(=O)c2c(nc(NCCc3c[nH]c4ccccc34)n2Cc2cccc(Br)c2)n(C)c1=O	6.74	8.00	pKi (Cannabinoid receptor 2): 6.46
CCCn1c(NCCc2c[nH]c3ccccc23)nc2c1c(=O)n(C)c(=O)n2C	6.52	6.71	
CCn1c(NCCc2c[nH]c3ccccc23)nc2c1c(=O)n(C)c(=O)n2C	6.42	6.72	
Cn1c(=O)c2c(nc(NCCc3c[nH]c4ccccc34)n2Cc2ccc(C(N)=O)cc2)n(C)c1=O	5.40	5.44	
Cn1c(=O)c2c(nc(NCCc3c[nH]c4ccccc34)n2Cc2ccc(Cl)c(Cl)c2)n(C)c1=O	7.05	7.13	
COc1cccc(Cn2c(NCCc3c[nH]c4ccccc34)nc3c2c(=O)n(C)c(=O)n3C)c1	6.61	6.78	
C#CCn1c(NCCc2c[nH]c3ccccc23)nc2c1c(=O)n(C)c(=O)n2C	6.50	6.61	
Cn1c(=O)c2c(nc(NCCc3c[nH]c4ccccc34)n2Cc2ccc(Cl)cc2)n(CC(F)(F)F)c1=O	6.15		
Cn1c(=O)c2c(nc(NCCc3c[nH]c4ccccc34)n2Cc2c(Cl)cccc2Cl)n(C)c1=O	6.25		
Cn1c(=O)c2c(nc(NCCc3c[nH]c4ccccc34)n2Cc2ccc(S(N)(=O)=O)cc2)n(C)c1=O	4.96	5.18	
Cn1c(=O)c2c(nc(NCCc3c[nH]c4ccccc34)n2Cc2ccc(Cl)c(F)c2)n(C)c1=O	6.92		

SMILES	pEC50 [1]	pEC50 [4]	further results
CNS(=O)(=O)c1ccc(Cn2c(NCCc3c[nH]c4ccccc34)nc3c2c(=O)n(C)c(=O)n3C)cc1	5.44	5.44	
Cn1c(=O)c2c(nc(NCCc3c[nH]c4ccccc34)n2Cc2ccc(Cl)cc2Cl)n(C)c1=O	6.61	7.19	
Cn1c(=O)c2c(nc(NCCc3c[nH]c4ccccc34)n2Cc2cccc(F)c2)n(C)c1=O	6.52		
CC(C)c1ccc(Cn2c(NCCc3c[nH]c4ccccc34)nc3c2c(=O)n(C)c(=O)n3C)cc1	6.82		pKi (Cannabinoid receptor 2): 6.82; pKi (Cannabinoid receptor 1): 5.20
Cn1c(=O)c2c(nc(NCCc3c[nH]c4ccccc34)n2Cc2ccc(C(F)(F)F)cc2)n(C)c1=O	6.67	6.87	
Cn1c(=O)c2c(nc(NCCc3c[nH]c4ccccc34)n2Cc2ccccc2Br)n(C)c1=O	6.81	6.72	pKi (Cannabinoid receptor 2): 5.77
Cn1c(=O)c2c(nc(NCCc3c[nH]c4ccccc34)n2Cc2ccc(Cl)cc2)n(CCO)c1=O	5.92		
Cn1c(=O)c2c(nc(NCCc3c[nH]c4ccccc34)n2Cc2ccc(Br)cc2)n(C)c1=O	7.24		
Cn1c(=O)c2c(nc(NCCc3c[nH]c4ccccc34)n2Cc2ccc(F)c(Cl)c2)n(C)c1=O	6.60	6.71	
Cn1c(=O)c2c(nc(NCCc3c[nH]c4ccccc34)n2CCCc2ccccc2)n(C)c1=O	6.64		
Cn1c(=O)c2c(nc(NCCc3c[nH]c4ccccc34)n2Cc2ccc(Cl)cc2)n(C)c1=O	7.27	7.72	pIC50 [5]: < 5.00; pKi (Cannabinoid receptor 2): 6.32; pEC50 [6]: < 5.00; pEC50 [7]: 7.42; pKi (Cannabinoid receptor 1): 5.93
Cn1c(=O)c2c(nc(NCCc3c[nH]c4ccccc34)n2Cc2ccc(Cl)cc2)n(CCF)c1=O	6.40	6.45	
Cn1c(=O)c2c(nc(NCCc3c[nH]c4ccccc34)n2CCC2CCCCC2)n(C)c1=O	6.90		
Cn1c(=O)[nH]c2nc(NCCc3c[nH]c4ccccc34)n(Cc3ccc(Cl)cc3)c2c1=O	6.54	6.69	
Cn1c(=O)c2c(nc(NCCc3c[nH]c4ccccc34)n2Cc2ccc(Cl)cc2)n(CC#N)c1=O	6.01	5.91	
Cn1c(=O)c2c(nc(NCCc3c[nH]c4ccccc34)n2Cc2ccc([N+](=O)[O-])cc2)n(C)c1=O	6.55		
CCCNS(=O)(=O)c1ccc(Cn2c(NCCc3c[nH]c4ccccc34)nc3c2c(=O)n(C)c(=O)n3C)cc1	5.89		
Cn1c(=O)c2c(nc(NCCc3c[nH]c4ccccc34)n2Cc2ccccc2Cl)n(C)c1=O	6.80	7.22	pKi (Cannabinoid receptor 2): < 5.00; pKi (Cannabinoid receptor 1): < 5.00
COC(=O)c1ccc(Cn2c(NCCc3c[nH]c4ccccc34)nc3c2c(=O)n(C)c(=O)n3C)cc1	6.31	6.33	
COc1ccc(Cn2c(NCCc3c[nH]c4ccccc34)nc3c2c(=O)n(C)c(=O)n3C)cc1	6.77	6.86	Ki (Cannabinoid receptor 1; cho): Not Active

SMILES	pEC50 [1]	pEC50 [4]	further results
Cc1ccc(Cn2c(NCCc3c[nH]c4ccccc34)nc3c2c(=O)n(C)c(=O)n3C)cc1	7.34	7.62	pKi (Cannabinoid receptor 2): 6.08; pKi (Cannabinoid receptor 1): 5.46
CC(=O)Nc1ccc(Cn2c(NCCc3c[nH]c4ccccc34)nc3c2c(=O)n(C)c(=O)n3C)cc1	6.55	6.66	
Cn1c(=O)c2c(nc(NCCc3c[nH]c4ccccc34)n2Cc2ccc(F)c(F)c2)n(C)c1=O	6.79	6.85	
CCn1c(=O)n(C)c(=O)c2c1nc(NCCc1c[nH]c3ccccc13)n2Cc1ccc(Cl)cc1	6.53	7.02	
Cn1c(=O)c2c(nc(NCCc3c[nH]c4ccccc34)n2C)n(C)c1=O	5.53	6.04	
Cn1c(=O)c2c(nc(NCCc3c[nH]c4ccccc34)n2Cc2ccccc2F)n(C)c1=O	6.89	6.86	
Cn1c(=O)c2c(nc(NCCc3c[nH]c4ccccc34)n2Cc2ccc(F)cc2)n(C)c1=O	6.91	7.27	
Cn1c(=O)c2c(nc(NCCc3c[nH]c4ccccc34)n2CCOc2ccc(Cl)cc2)n(C)c1=O	6.35		
Cn1c(=O)c2c(nc(NCCc3c[nH]c4ccccc34)n2Cc2ccc(Cl)cc2)n(Cc2ccccc2)c1=O	6.41	< 5.00	
CCCCn1c(NCCc2c[nH]c3ccccc23)nc2c1c(=O)n(C)c(=O)n2C	6.68	6.82	
CCCNC(=O)c1ccc(Cn2c(NCCc3c[nH]c4ccccc34)nc3c2c(=O)n(C)c(=O)n3C)cc1	5.90	5.85	
Cn1c(=O)c2c(nc(NCCc3c[nH]c4ccccc34)n2CCOc2ccccc2)n(C)c1=O	6.48		
C=CCCn1c(NCCc2c[nH]c3ccccc23)nc2c1c(=O)n(C)c(=O)n2C	6.35		
Cn1c(=O)c2c(nc(NCCc3c[nH]c4ccccc34)n2CCc2ccccc2)n(C)c1=O	6.54	6.35	
CCCn1c(=O)n(C)c(=O)c2c1nc(NCCc1c[nH]c3ccccc13)n2Cc1ccc(Cl)cc1	< 5.00	< 5.00	
Cn1c(=O)c2c(nc(NCCc3c[nH]c4ccccc34)n2Cc2ccc(N)cc2)n(C)c1=O	6.62		
CCCCC/C=C\C/C=C\C/C=C\C/C=C\CCCC(=O)NCC(=O)O [ARACHIDONOYL GLYCINE]	< 5.00	< 5.00	
CCCCCc1cc(O)c2c(c1)OC(C)(C)[C@@H]1CCC(C)=C[C@@H]21 [DRONABINOL]	< 5.00	5.47	pEC50 [8]: 7.42
